Data on two compounds can be found in publication PMC10573062, “Synthesis, Structural Characterization, Cytotoxicity, and Protein/DNA Binding Properties of Pyridoxylidene-Aminoguanidine-Metal (Fe, Co, Zn, Cu) Complexes” (International Journal of Molecular Sciences, 2023).

The test system of one data set is HCT116 cell lines. More on the design: method as in PMID 30798514. The settings on record: previous study; cited from earlier work.
Data set [1] addresses T1, bovine serum albumin (BSA) (Bos taurus, UniProt P02769).
T1 construct: purchased
Kind of data set: Spectrofluorometric titration of BSA (fluorescence quenching, double log Stern–Volmer, van't Hoff). The format is binding. The method, then:
(§1) The protein binding affinity of obtained compounds was analyzed by the spectrofluorometric titration of BSA and HSA solution by the solution containing obtained compounds. The mixture was irradiated by light with a wavelength of 295 (BSA) and 280 nm (HSA). Both proteins contain fluorescent amino acids within active pockets, and the binding process can be monitored through the change in intensity and position of the emitted light maxima. The fluorescent emission depends on the chemical environment of amino acids. The measurements for each complex were repeated at three temperatures to allow the determination of the thermodynamic parameters of binding.
(§2) The spectrofluorometric measurements were used to investigate the binding process of obtained compounds towards bovine serum albumin (BSA) and human serum albumin (HSA) on the Cary Eclipse MY2048CH03 instrument. The scan rate was 600 nm min^−1, and both slits were 5 nm. The excitation wavelengths were 295 nm and 280 nm for BSA and HSA, respectively. These energies are characteristics of the protein structure’s tryptophan and other fluorescent amino acid residues. The emission spectra were recorded between 310 and 500 nm. The concentration of proteins was held constant at 5 × 10^−6 M in […] phosphate buffer saline (pH = 7.4). The concentration of complexes changed from 1 to 10 × 10^−6 M, and the emission spectrum was recorded two minutes after the addition of compounds. The data were analyzed by the double log Stern–Volmer quenching equation (Equation (2)):(2) logI0−I/I=logKb+nlogQ
In the previous equation, I0 and I are the fluorescent emission intensities of BSA/HSA without and with added metal complexes, respectively; Kb is the binding constant; n is the number of binding places; and [Q] is the concentration of quenchers (metal complexes). […]

For data set [2], the target named is T2, human serum albumin (HSA) (Homo sapiens, UniProt P02768).
T2 construct: purchased
Kind of data set: Spectrofluorometric titration of HSA (fluorescence quenching, double log Stern–Volmer, van't Hoff). The format is binding. On the procedure:
as §1
The binding affinity of obtained complexes was also examined towards HSA as a transport protein relevant to the human body. The temperature range was changed to reflect better temperatures common for humans (32–42 °C). The representative example of the HAS fluorescence measurements is shown in Figure 9, along with van’t Hoff’s plot. The decrease in the fluorescence intensity emission was also dependent on the concentration of complexes. On average, the binding constants were similar to the ones calculated for BSA. […] High correlation coefficients, between 0.990 and 0.998, were calculated for the dependency described by Equation (2). The number of binding places is 1, proving that the same type of complexes were formed between investigated compounds and HAS as previously shown for BSA.
as §2
In the previous equation, I0 and I are the fluorescent emission intensities of BSA/HSA without and with added metal complexes, respectively; Kb is the binding constant; n is the number of binding places; and [Q] is the concentration of quenchers (metal complexes).
The changes in enthalpy and entropy of the binding process were determined from the vant’t Hoff equation (Equation (3)) following the measurements at three temperatures (27, 32, and 37 °C):(3) lnKb=−∆Hb/RT+∆Sb/R

In data set [3] the test system is HCT116 colorectal carcinoma. As to the kind of experiment: MTT viability assay, HCT116. The settings on record: 72 h of treatment. In kind it is cell-based, human. The method, then: (§3) The following cell lines were used in this study: human cell lines (A375 melanoma, MCF-7 breast cancer, HCT116 colorectal carcinoma, and A2780 ovarian cancer. These cell lines were purchased from the American Type Culture Collection (Rockville, MD, USA). The A2780 cells were cultivated in DMEM, while all other cell lines were cultivated in the HEPES-buffered RPMI-1640 medium. The cell culture mediums were supplemented with penicillin (1000 units/mL), streptomycin (100 µg/mL), and 10% inactivated FBS. All cells were cultivated at 37 °C in a humidified atmosphere with 5% CO2.
(§4) Two colorimetric viability assays were applied, namely 3-(4,5-dimethylthiazol-2-yl)-2,5-diphenyl-2H-tetrazolium bromide (MTT) and crystal-violet (CV) (Sigma Aldrich, St. Louis, MO, USA), according to the previous studies. The cells were seeded overnight in 96-well plates: A2780 and MRC-5 8 × 10^3 cells/well, HCT 116 6 × 10^3 cells/well, A375 5 × 10^3 cells/well, and MCF-7 at 10 × 10^3 cells/well [67]. The standard solutions of complexes were prepared in DMSO. All cells were treated with the following concentrations of investigated compounds: 100, 50, 25, 12.5, 6.25, 3.125, and 1.56 µM. After 72 h of treatment, viability assays were conducted. For the CV assay, cells were fixed using 4% paraformaldehyde (PFA) for 20 min at room temperature after being washed once with PBS. Afterward, they were stained with 0.2% CV solution for 25 min. This procedure was followed by washing with double distilled water. The cells were left to dry overnight at room temperature. In the last step, 33% acetic acid was used to dissolve the remaining dye. The other test included incubating cells in MTT solution (0.5 mg L^−1 in cell culture medium) for […] at 37 °C in a humid environment with 5% CO2. After one hour, the MTT solution was discarded, and the formed formazan was dissolved using DMSO. A plate reader (Spectromax, Molecular Devices, San Jose, CA, USA) was utilized for the absorption measurements at 570 and 670 (background) nm. The cell viability was calculated as the percentage compared to untreated cells, and the mean was obtained using a four-parametric logistic function. Each of the three independent experiments was performed in quadruplicate.

Data set [4] has as its system HCT116 colorectal carcinoma. Kind of data set: CV (crystal-violet) viability assay, HCT116. The format is cell-based, human. The settings on record: 72 h of treatment. The method, then:
as §3, §4

Data set [5] has as its system A375 melanoma. Kind of data set: MTT viability assay, A375. The format is cell-based, human. The following applies: 72 h of treatment. On the procedure: as §3
as §4, with “After one hour, the MTT solution was discarded, and the formed formazan was dissolved using DMSO.” left out, “Each of the three independent experiments was performed in quadruplicate.” left out

For data set [6], the system named is A375 melanoma. As to the kind of experiment: CV (crystal-violet) viability assay, A375. The format is cell-based, human. The settings on record: 72 h of treatment. The method, then:
as §3
as §4, with “After one hour, the MTT solution was discarded, and the formed formazan was dissolved using DMSO.” left out, “Each of the three independent experiments was performed in quadruplicate.” left out

Data set [7] relates to MCF-7 breast cancer. Kind of data set: MTT viability assay, MCF-7. In kind it is cell-based, human. The following applies: MCF-7, MTT, 72 h of treatment. On the procedure:
as §3, §4
On the technique in general: Tetrazolium dyes change colour on reduction, which living cells bring about.

Data set [8] concerns MCF-7 breast cancer. Kind of data set: CV (crystal-violet) viability assay, MCF-7. In kind it is cell-based, human. The settings on record: MCF-7, CV, 72 h of treatment. On the procedure:
as §3, §4

Data set [9] concerns A2780 ovarian cancer. Kind of data set: MTT viability assay, A2780. In kind it is cell-based, human. The following applies: 72 h of treatment. The method, then: as §3, §4
Data set [10] concerns A2780 ovarian cancer. As to the kind of experiment: CV (crystal-violet) viability assay, A2780. The format is cell-based, human. The following applies: 72 h of treatment. On the procedure:
as §3, §4

The nature of data set [11]: Qualitative solubility in solvents. The format is physicochemical.
Where [12] appears, read: van't Hoff over three temperatures.

T2 sequence (P02768 25-609): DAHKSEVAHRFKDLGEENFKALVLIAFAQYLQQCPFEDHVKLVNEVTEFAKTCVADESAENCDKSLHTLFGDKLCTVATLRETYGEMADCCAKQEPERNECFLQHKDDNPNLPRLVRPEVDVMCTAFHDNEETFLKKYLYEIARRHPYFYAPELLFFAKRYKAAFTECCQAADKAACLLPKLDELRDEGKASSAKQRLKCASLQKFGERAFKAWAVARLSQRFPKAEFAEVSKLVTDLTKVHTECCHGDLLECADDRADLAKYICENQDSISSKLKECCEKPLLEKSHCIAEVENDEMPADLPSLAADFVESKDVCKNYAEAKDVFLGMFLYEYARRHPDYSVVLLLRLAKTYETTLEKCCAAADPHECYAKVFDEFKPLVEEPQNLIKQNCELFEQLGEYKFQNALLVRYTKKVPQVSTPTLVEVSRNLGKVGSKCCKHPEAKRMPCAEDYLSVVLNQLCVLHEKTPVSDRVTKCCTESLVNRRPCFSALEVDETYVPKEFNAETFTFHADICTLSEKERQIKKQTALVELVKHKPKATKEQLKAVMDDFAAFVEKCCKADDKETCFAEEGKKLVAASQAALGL
T1 sequence (P02769 25-607): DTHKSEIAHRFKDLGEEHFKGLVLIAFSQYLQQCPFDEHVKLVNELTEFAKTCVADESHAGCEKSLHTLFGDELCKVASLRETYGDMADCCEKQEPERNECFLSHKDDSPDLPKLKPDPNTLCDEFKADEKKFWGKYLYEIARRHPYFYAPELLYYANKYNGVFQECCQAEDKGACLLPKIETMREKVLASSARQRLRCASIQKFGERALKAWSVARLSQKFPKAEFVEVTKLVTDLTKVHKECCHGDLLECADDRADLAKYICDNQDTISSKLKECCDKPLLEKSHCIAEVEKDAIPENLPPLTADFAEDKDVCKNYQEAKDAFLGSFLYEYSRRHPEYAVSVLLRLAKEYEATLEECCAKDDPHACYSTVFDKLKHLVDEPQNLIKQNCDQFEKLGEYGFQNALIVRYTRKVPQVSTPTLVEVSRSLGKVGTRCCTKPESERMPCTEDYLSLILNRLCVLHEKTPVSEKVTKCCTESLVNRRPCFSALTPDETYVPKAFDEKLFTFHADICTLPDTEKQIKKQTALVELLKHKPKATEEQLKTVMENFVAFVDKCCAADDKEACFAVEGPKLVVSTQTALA

In the case of `O=S(=O)([O-])[O-].[Cu+2]` [CuSO4], the “activity towards HCT116 cell line” value in the data set with HCT116 cell lines was “almost completely inactive”.
As for [Zn(PLAG)(SO4)(H2O)]^.H2O [Zn-PLAG], the “Kb (binding constant)” value in data set [1] (27 °C) came out at 58000 M⁻¹; in [1] (32 °C), 124000 M⁻¹; in data set [1] (35 °C) it was 208000 M⁻¹. For the same compound, the “n (number of binding places)” value is on record as 1.13 in data set [1] (27 °C); 1.09 in [1] (32 °C); 1.03 in data set [1] (35 °C); 1.11 in data set [2] (32 °C); 0.99 in data set [2] (37 °C); 0.95 in data set [2] (42 °C). For the same compound, the ΔGb is -6.561 kcal/mol in [1] (27 °C); -7.065 kcal/mol in [1] (32 °C); -7.567 kcal/mol in data set [1] (35 °C); -6.848 kcal/mol in data set [2] (32 °C); -6.898 kcal/mol in [2] (37 °C); -6.948 kcal/mol in data set [2] (42 °C). The ΔHb in data set [1] (setting [12]) was found to be 23.61 kcal/mol. Moreover, in data set [1] (setting [12]), the ΔSb was 420.77 J mol^−1 K^−1. Further, the IC50 (in data set [3]; in [4]; with A375 melanoma [5]; in the data set on A375 melanoma [6]; with MCF-7 breast cancer [7]; in the data set on MCF-7 breast cancer [8]) was above 100 µM throughout. Besides, the IC50 with A2780 ovarian cancer [9] and in the data set with A2780 ovarian cancer [10] was above 100 µM each time. Further, the solubility result in data set [11] (in chloroform, dimethylsulfoxide, dimethylformamide, acetone, and acetonitrile) is “soluble”; in data set [11] (in diethyl ether and toluene) it was “insoluble”; in data set [11] (in methanol, ethanol, phosphate buffer saline, and water), “moderately soluble”.

The term IC50 denotes the concentration at which inhibition is half-maximal. Read a high IC50 as weaker potency in that assay.
